Measurements: US20210299134A1, “TREATMENT OF B CELL MALIGNANCIES” (MEI Pharma, Inc., priority 2018, published 2021)

Tests used:
[1] = test system: patients with relapsed B-cell malignancies; experiment: Phase 1b study: patient dispositions on intermittent or continuous schedule; assay type: in vivo, human; conditions: Compound A35 alone arm
Description: An intermittent dosing schedule on days 1-7 of a 28-day cycle was then evaluated after 2 cycles of daily dosing, or ≥3 cycles of daily dosing to reduce the risk of immune-related adverse events. For this analysis the intermittent schedule (IS) group is defined as patients who received Compound A35 alone or with rituximab daily for 2 cycles then switched to an intermittent schedule of 1 week per cycle, and the continuous schedule (CS) group is defined as patients who never switched to intermittent dosing or switched to intermittent dosing in cycle 4 or later cycles. Toxicity on CS is managed by a switch to IS.
In an ongoing Phase 1b study, Compound A35 was administered as a single agent in patients with relapsed B-cell malignancies. Patients have been enrolled in 3 cohorts: • Group A: 31 patients enrolled in a dose escalation phase of the study, with Compound A35 administered as a single agent at a dose of 60, 120, and 180 mg/day. In Group A, all patients began receiving Compound A35 on a CS. Approximately 1.5 years after the start of the study, 17 ongoing patients were switched to the IS to prevent delayed immune-mediated toxicities after various duration of exposure on the CS.
• Group B: 21 patients enrolled in an ongoing expansion cohort of up to 30 patients administered Compound A35 as a single agent at 60 mg/day on the CS for 2 cycles then switching to the IS in Cycle 3 (N=17) or later cycles (N=4).

[2] = Plasma half-life; assay type: in vivo; conditions: human, oral, healthy volunteers and patients with B-cell malignancies
Description: It is known that administration of an oral drug over a period equivalent to approximately 7 half-lives is necessary to achieve steady state plasma concentrations required for optimal antitumor activity, and that a period of approximately 7 half-lives is needed to clear a drug from the plasma after treatment interruption. TREGs repopulation occurs approximately 14 days after the administration of a single dose of the anti-CD25 immunotoxin denileukin diftitox (ONTAK®), a drug known to suppress TREGs. Therefore, it was hypothesized that administration of Compound A35 at 60 mg/day for 7 consecutive days will result in steady-state plasma concentrations sufficient to inhibit PI3K5 in target malignant B-cells and that 21 days without treatment will be sufficient to repopulate TREGs, which comprises 7 days to clear Compound A35 from the plasma (˜7 half-lives) and 14 days for reconstitution of TREGs after Compound A35 is cleared from the plasma.

[3] = test system: murine B-cell tumors; experiment: Tumor exposure and retention (FIGS. 3 and 4); assay type: in vivo
[4] = Plasma levels >IC90 and plasma versus tissue levels on intermittent dosing (FIGS. 6A-6B); assay type: in vivo, human; conditions: FIG. 6A
Description: There is also evidence pointing to a role for the PI3K pathway in T lymphocytes, which may explain these immune dysregulations. For example, in mice, genetic inactivation of p110δ results in a decrease of the function of regulatory T-cells (TREGs), a subset population of T-cells. […] In some instances, PI3K5 inhibition results in various immune-mediated toxicities such as enterocolitis and skin toxicity due to TREG suppression, as well as infections due to suppression of B-cells and effector T-cells. In some instances, treatment regimens with small molecule PI3K5 delta (or PI3K5) inhibitors on an intermittent dosing schedule (IS) are used. However, in certain instances, progression of disease is observed in subjects who are treated for B-cell malignancies, including chronic lymphocytic leukemia (CLL) and lymphomas with small molecule PI3K5 inhibitors (e.g., parsaclisib (INCB050465)) on an IS dosing regimen (see FIG. 6B). […] In some embodiments, the methods of treatment and dosing regimens and schedules described herein provide an efficacious and tolerable treatment of cancer. In some embodiments, the methods of treatment and dosing regimens and schedules described herein improve the frequency, severity and time to onset of the adverse events (AEs) associated with PI3K delta inhibitors. […]

CN1CCC(c2ccccc2CC(C)(C)Nc2nc(N3CCOCC3)nc(-n3c(C(F)F)nc4ccccc43)n2)CC1 [Compound A35]
Discontinued therapy: Adverse event ([1]; CS Group (N = 25)): (16%) | Discontinued therapy: Adverse event, number of patients ([1]; CS Group (N = 25)): 4 | Discontinued therapy: Progressive disease ([1]; CS Group (N = 25)): (20%) | Discontinued therapy: Progressive disease, number of patients ([1]; CS Group (N = 25)): 5 | Discontinued therapy: Adverse event, number of patients ([1]; IS Group (N = 15)): 0 | Discontinued therapy: Progressive disease ([1]; IS Group (N = 15)): (20%) | Discontinued therapy: Progressive disease, number of patients ([1]; IS Group (N = 15)): 3 | half-life [2]: ~28 h | retention in murine B-cell tumors compared to idelalisib ([3]; FIG. 4): preferential retention | tumor exposure ([3]; over a 4-hour and 24-hour period (FIG. 3)): preferential tumor exposure | plasma levels versus tissue levels [4]: plasma levels underestimate tissue levels
